In PubChem BioAssay AID1963432 (Molecular Pharmacology Branch, DTP, NCI, 2024):

Test system: SYO-1 complex spheroid growth, percent test/control
Test: Anticancer human tumor SYO-1 cell line growth inhibition [Asc];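 further: compound exposure lasted 7 days after spheroids grew 3 days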;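 on viability, T/C: 100% = DMSO vehicle control viability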
Settings: for IC50: curve of first compound; for viability, T/C: stronger effect = lower value
Procedure, shortened: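 Spheroid model: tumor line + HUVEC + hMSC. Single agents and combinations; top conc. at/near clinical Cmax (10 microM if undetermined), half-log dilutions. DMSO stocks at 800-fold test concentration.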

[1] = second compound 0.00949 µM, first compound 0.0316 µM
[2] = second compound 0.00949 µM, first compound 0.1 µM
[3] = second compound 0.00949 µM, first compound 0.316 µM
[4] = second compound 0.00949 µM, first compound 1 µM
[5] = second compound 0.00949 µM, first compound 3.16 µM
[6] = second compound 0.00949 µM, first compound 10 µM
[7] = second compound 0.03 µM, first compound 0.0316 µM
[8] = second compound 0.03 µM, first compound 0.1 µM
[9] = second compound 0.03 µM, first compound 0.316 µM
[10] = second compound 0.03 µM, first compound 1 µM
[11] = second compound 0.03 µM, first compound 3.16 µM
[12] = second compound 0.03 µM, first compound 10 µM
[13] = second compound 0.0949 µM, first compound 0.0316 µM
[14] = second compound 0.0949 µM, first compound 0.1 µM
[15] = second compound 0.0949 µM, first compound 0.316 µM
[16] = second compound 0.0949 µM, first compound 1 µM
[17] = second compound 0.0949 µM, first compound 3.16 µM
[18] = second compound 0.0949 µM, first compound 10 µM
[19] = second compound 0.3 µM, first compound 0.0316 µM
[20] = second compound 0.3 µM, first compound 0.1 µM
[21] = second compound 0.3 µM, first compound 0.316 µM
[22] = second compound 0.3 µM, first compound 1 µM
[23] = second compound 0.3 µM, first compound 3.16 µM
[24] = second compound 0.3 µM, first compound 10 µM
[25] = second compound 0.949 µM, first compound 0.0316 µM
[26] = second compound 0.949 µM, first compound 0.1 µM
[27] = second compound 0.949 µM, first compound 0.316 µM
[28] = second compound 0.949 µM, first compound 1 µM
[29] = second compound 0.949 µM, first compound 3.16 µM
[30] = second compound 0.949 µM, first compound 10 µM
[31] = second compound 3 µM, first compound 0.0316 µM
[32] = second compound 3 µM, first compound 0.1 µM
[33] = second compound 3 µM, first compound 0.316 µM
[34] = second compound 3 µM, first compound 1 µM
[35] = second compound 3 µM, first compound 3.16 µM
[36] = second compound 3 µM, first compound 10 µM

Compound: C=C(F)C(=O)N1CCN(c2nc(OCC3CCCN3C)nc3c2CCN(c2cccc4cccc(Cl)c24)C3)CC1CC#N (stereo unspecified) + CCN1C(C(=O)NC23CCC(C(=O)O)(CC2)CC3)C(c2cccc(Cl)c2F)C2(C(=O)Nc3cc(Cl)ccc32)C12CCCCC2
- IC50 (second compound 0.00949 µM): 5020 nM
- IC50 (second compound 0.03 µM): 1860 nM
- IC50 (second compound 0.0949 µM): 1620 nM
- IC50 (second compound 0.3 µM): < 31.6 nM
- IC50 (second compound 0.949 µM): < 31.6 nM
- IC50 (second compound 3 µM): < 31.6 nM
- viability, T/C [1]: 101%
- viability, T/C [2]: 99.9%
- viability, T/C [3]: 101%
- viability, T/C [4]: 109%
- viability, T/C [5]: 83.3%
- viability, T/C [6]: 0.4%
- viability, T/C [7]: 96.9%
- viability, T/C [8]: 95.3%
- viability, T/C [9]: 101%
- viability, T/C [10]: 111%
- viability, T/C [11]: 6.35%
- viability, T/C [12]: 0.68%
- viability, T/C [13]: 87.1%
- viability, T/C [14]: 81%
- viability, T/C [15]: 83.8%
- viability, T/C [16]: 88.2%
- viability, T/C [17]: 1.01%
- viability, T/C [18]: 0.26%
- viability, T/C [19]: 31.3%
- viability, T/C [20]: 27.9%
- viability, T/C [21]: 22.7%
- viability, T/C [22]: 23.9%
- viability, T/C [23]: 1.47%
- viability, T/C [24]: 0.37%
- viability, T/C [25]: 4.04%
- viability, T/C [26]: 3.25%
- viability, T/C [27]: 2.38%
- viability, T/C [28]: 1.49%
- viability, T/C [29]: 0.82%
- viability, T/C [30]: 0.26%
- viability, T/C [31]: 2.61%
- viability, T/C [32]: 1.39%
- viability, T/C [33]: 1.16%
- viability, T/C [34]: 0.97%
- viability, T/C [35]: 0.49%
- viability, T/C [36]: 0.4%

Compound: C=CC(=O)N1CCN(c2nc(=O)n(-c3c(C)ccnc3C(C)C)c3nc(-c4c(O)cccc4F)c(F)cc23)C(C)C1 (stereo unspecified) + CCN1C(C(=O)NC23CCC(C(=O)O)(CC2)CC3)C(c2cccc(Cl)c2F)C2(C(=O)Nc3cc(Cl)ccc32)C12CCCCC2
- IC50 (second compound 0.00949 µM): > 10000 nM
- IC50 (second compound 0.03 µM): > 10000 nM
- IC50 (second compound 0.0949 µM): > 10000 nM
- IC50 (second compound 0.3 µM): < 31.6 nM
- IC50 (second compound 0.949 µM): < 31.6 nM
- IC50 (second compound 3 µM): < 31.6 nM
- viability, T/C [1]: 101%
- viability, T/C [2]: 104%
- viability, T/C [3]: 103%
- viability, T/C [4]: 103%
- viability, T/C [5]: 92%
- viability, T/C [6]: 89.1%
- viability, T/C [7]: 98%
- viability, T/C [8]: 94.7%
- viability, T/C [9]: 96.7%
- viability, T/C [10]: 103%
- viability, T/C [11]: 97.6%
- viability, T/C [12]: 81.8%
- viability, T/C [13]: 78.5%
- viability, T/C [14]: 84%
- viability, T/C [15]: 76.7%
- viability, T/C [16]: 79.4%
- viability, T/C [17]: 75.9%
- viability, T/C [18]: 56.2%
- viability, T/C [19]: 29.8%
- viability, T/C [20]: 25.3%
- viability, T/C [21]: 25.2%
- viability, T/C [22]: 20.8%
- viability, T/C [23]: 21.3%
- viability, T/C [24]: 12.2%
- viability, T/C [25]: 3.03%
- viability, T/C [26]: 4.04%
- viability, T/C [27]: 2.34%
- viability, T/C [28]: 2.88%
- viability, T/C [29]: 2.48%
- viability, T/C [30]: 2.88%
- viability, T/C [31]: 1.34%
- viability, T/C [32]: 1.23%
- viability, T/C [33]: 1.3%
- viability, T/C [34]: 1.29%
- viability, T/C [35]: 1.12%
- viability, T/C [36]: 1.29%

Compound: CNC(C)C(=O)NC1CN(S(=O)(=O)c2cccc(S(=O)(=O)N3CCC4CCC(C(=O)NC(c5ccccc5)c5ccccc5)N4C(=O)C(NC(=O)C(C)NC)C3)c2)CCC2CCC(C(=O)NC(c3ccccc3)c3ccccc3)N2C1=O (stereo unspecified) + CCN1C(C(=O)NC23CCC(C(=O)O)(CC2)CC3)C(c2cccc(Cl)c2F)C2(C(=O)Nc3cc(Cl)ccc32)C12CCCCC2
- IC50 (second compound 0.00949 µM): > 1000 nM
- IC50 (second compound 0.03 µM): > 1000 nM
- IC50 (second compound 0.0949 µM): > 1000 nM
- IC50 (second compound 0.3 µM): < 3.16 nM
- IC50 (second compound 0.949 µM): < 3.16 nM
- IC50 (second compound 3 µM): < 3.16 nM
- viability, T/C (second compound 0.00949 µM, first compound 0.00316 µM): 109%
- viability, T/C (second compound 0.00949 µM, first compound 0.01 µM): 104%
- viability, T/C [1]: 104%
- viability, T/C [2]: 112%
- viability, T/C [3]: 113%
- viability, T/C [4]: 98.7%
- viability, T/C (second compound 0.03 µM, first compound 0.00316 µM): 99.2%
- viability, T/C (second compound 0.03 µM, first compound 0.01 µM): 99.9%
- viability, T/C [7]: 99.2%
- viability, T/C [8]: 105%
- viability, T/C [9]: 101%
- viability, T/C [10]: 96.6%
- viability, T/C (second compound 0.0949 µM, first compound 0.00316 µM): 85.7%
- viability, T/C (second compound 0.0949 µM, first compound 0.01 µM): 82.6%
- viability, T/C [13]: 76.7%
- viability, T/C [14]: 75.3%
- viability, T/C [15]: 81.2%
- viability, T/C [16]: 70.6%
- viability, T/C (second compound 0.3 µM, first compound 0.00316 µM): 26.2%
- viability, T/C (second compound 0.3 µM, first compound 0.01 µM): 20%
- viability, T/C [19]: 16.1%
- viability, T/C [20]: 15.6%
- viability, T/C [21]: 16%
- viability, T/C [22]: 13.4%
- viability, T/C (second compound 0.949 µM, first compound 0.00316 µM): 4.14%
- viability, T/C (second compound 0.949 µM, first compound 0.01 µM): 1.95%
- viability, T/C [25]: 1.29%
- viability, T/C [26]: 1.74%
- viability, T/C [27]: 0.96%
- viability, T/C [28]: 0.61%
- viability, T/C (second compound 3 µM, first compound 0.00316 µM): 1.42%
- viability, T/C (second compound 3 µM, first compound 0.01 µM): 1.29%
- viability, T/C [31]: 0.76%
- viability, T/C [32]: 1.16%
- viability, T/C [33]: 0.78%
- viability, T/C [34]: 0.82%
